Assay results from patent US20240270732A1, “RECEPTOR-INTERACTING PROTEIN INHIBITOR, PREPARATION METHOD THEREFOR, AND USE THEREOF” (CHENGDU BIOBEL BIOTECHNOLOGY CO., LTD, priority 2021, published 2024).

How the values were obtained:
[1] = system: U937 cells; experiment: Inhibition of necrosis of U937 cells induced by TNF-α (CellTiter-Glo); format: cell-based; settings: Homo sapiens, U-937; TNF-α 100 ng/ml + AT-406 1 μM + z-VAD-FMK 20 μM, 24 h
Method: (§1) After the cells were incubated in a 5% CO2 incubator at 37° C. for 24 h, the test compound of the present invention and the control compound were diluted to the corresponding pre-determined concentration using the medium, and added to the 384-well plate at 5 μL/well. […] Then, 30 μL of CellTiter-Glo luminescent solution was added to each well, and shaken for 2 min. After standing at room temperature for 10 min, the absorbance was measured using an enzyme-linked immunosorbent assay (ELISA). […] A is the group without necrosis-inducing agents, and B is the group with necrosis-inducing agents.

[2] = system: HacaT cells; experiment: Inhibition of necrosis of HacaT cells induced by TNF-α (CellTiter-Glo); format: cell-based; settings: Homo sapiens, TNF-α 100 ng/ml + AT-406 1 μM + z-VAD-FMK 20 μM, 24 h
Method: […] (purchased from ATCC) in logarithmic growth phase were collected and resuspended in 1640 medium, and then the cell concentration was adjusted to 20 cells/μL, to obtain cell suspension, which was seeded in 384-well plate, with 20 μL cell suspension for each well. After the cells were cultured in a 5% CO2 incubator at 37° C. for 24 h, the test compound of the present invention and the control compound were diluted to the corresponding pre-determined concentration using the medium, and added to the 384-well plate at 5 µL/well. […] Then, 30 μL of CellTiter-Glo luminescent solution was added to each well, and shaken for 2 min. After standing at room temperature for 10 min, the absorbance was measured using ELISA. […] A is the group without necrosis-inducing agents, and B is the group with necrosis-inducing agents.

[3] = system: human pancreatic cancer cells PANC-1; experiment: Inhibition of necrosis of PANC-1 cells induced by TNF-α (CellTiter-Glo); format: cell-based; settings: TNF-α 100 ng/ml + AT-406 1 μM + z-VAD-FMK 20 μM, 24 h
Method: as §1, with “ELISA.” for “an enzyme-linked immunosorbent assay (ELISA).”, “agents. […] A is the group without necrosis-inducing agents, B is the group with necrosis-inducing agents, and X is the group with compounds and necrosis-inducing agents.” for “agents.”

[4] = system: human colon cancer cells HT-29; experiment: Inhibition of necrosis of HT-29 cells induced by TNF-α (CellTiter-Glo); format: cell-based; settings: TNF-α 100 ng/ml + AT-406 1 μM + z-VAD-FMK 20 μM, 24 h
Method: as §1, with “ELISA.” for “an enzyme-linked immunosorbent assay (ELISA).”, “agents. […] A is the group without necrosis-inducing agents, B is the group with necrosis-inducing agents, and X is the group with compounds and necrosis-inducing agents.” for “agents.”

[5] = target: human RIP1 kinase (Homo sapiens (Human), UniProt Q13546); experiment: Inhibitory activity on RIP1 kinase (ADP-Glo); format: biochemical; settings: human RIP kinase 25 nM
human RIP1 kinase, sequence (Q13546 whole entry): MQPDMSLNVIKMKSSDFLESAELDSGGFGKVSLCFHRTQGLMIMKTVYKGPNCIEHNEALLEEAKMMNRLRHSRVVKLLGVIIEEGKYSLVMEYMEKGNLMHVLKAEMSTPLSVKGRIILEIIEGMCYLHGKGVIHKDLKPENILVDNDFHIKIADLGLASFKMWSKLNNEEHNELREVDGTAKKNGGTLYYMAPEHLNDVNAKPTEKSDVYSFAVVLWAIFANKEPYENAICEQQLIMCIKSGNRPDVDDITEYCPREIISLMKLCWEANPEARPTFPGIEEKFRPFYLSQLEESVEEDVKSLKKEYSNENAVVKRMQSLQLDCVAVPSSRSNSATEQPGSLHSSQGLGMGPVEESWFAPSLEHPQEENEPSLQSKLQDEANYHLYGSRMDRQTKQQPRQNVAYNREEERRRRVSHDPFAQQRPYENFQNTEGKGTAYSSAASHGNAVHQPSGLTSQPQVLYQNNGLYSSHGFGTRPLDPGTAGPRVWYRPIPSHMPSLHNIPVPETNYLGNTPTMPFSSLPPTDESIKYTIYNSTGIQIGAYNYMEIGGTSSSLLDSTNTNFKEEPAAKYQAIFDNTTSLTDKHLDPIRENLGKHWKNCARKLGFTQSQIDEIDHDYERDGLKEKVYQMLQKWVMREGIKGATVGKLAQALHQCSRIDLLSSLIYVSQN
Method: The compound of the present invention and the control compound were dissolved in the assay buffer (50 mM Hepes pH 7.5, 50 mM NaCl, 30 mM MgCl2, 1 mM DTT, 0.02% CHAPS, 0.5 mg/mL BSA), and diluted in a ratio of 1:1.5 using a 22-point titration (high concentration 2 μM), and then added to a 384-well plate. […] After completion of the reaction, 5 μL of ADP-Glo reagent containing 0.02% CHAPS was added to each well and incubated at room temperature for 1 h to terminate the kinase reaction and use up all remaining ATP. Then, 5 μL of ADP-Glo detection solution containing 0.02% CHAPS was added to each well and incubated at room temperature for 30 min to measure the emittance intensity. For each ATP concentration, the activity data was obtained by the emittance intensity minus the control intensity.

Row | SMILES | IC50 [1] [nM] | IC50 ([3]; Homo sapiens, PANC-1) [nM] | IC50 ([4]; Homo sapiens, HT-29) [nM] | IC50 [5] [nM] | also measured
1 | C[C@H]1Oc2ccc(C#CCN3CCN(CC#Cc4ccc5c(c4)N(C)C(=O)[C@@H](NC(=O)c4n[nH]c(Cc6ccccc6)n4)[C@@H](C)O5)CC3)cc2N(C)C(=O)[C@H]1NC(=O)c1n[nH]c(Cc2ccccc2)n1 [Compound I-2] | 4.47 | 24.4 | 13 | – | IC50 [2]: 3.89 nM
2 | CN1C(=O)[C@@H](NC(=O)c2n[nH]c(Cc3ccccc3)n2)COc2ccc(C#CCN3CCN(CC#Cc4ccc5c(c4)N(C)C(=O)[C@@H](NC(=O)c4n[nH]c(Cc6ccccc6)n4)CO5)CC3)cc21 [Compound I-11] | 2.09 | 20.4 | 10.8 | – | IC50 [2]: 2.97 nM
3 | [2H]C([2H])([2H])N1C(=O)[C@@H](NC(=O)c2n[nH]c(Cc3ccccc3)n2)[C@@H](C)Oc2ccc(C#CCN3CCN(CC#C)CC3)cc21 [Compound I-14] | – | – | – | 4.52 | –
4 | [2H]C([2H])([2H])N1C(=O)[C@@H](NC(=O)c2n[nH]c(Cc3ccccc3)n2)[C@@H](C)Oc2ccc(C#CCN3CCN(CC#Cc4ccc5c(c4)N(C([2H])([2H])[2H])C(=O)[C@@H](NC(=O)c4n[nH]c(Cc6ccccc6)n4)[C@@H](C)O5)CC3)cc21 [Compound I-15] | – | – | – | 4.88 | –
5 | C[C@H]1Oc2ccc(C#CCN3CCN(CC#Cc4ccc5c(c4)N(C)C(=O)[C@@H](NC(=O)c4ncn(Cc6ccccc6)n4)[C@@H](C)O5)CC3)cc2N(C)C(=O)[C@H]1NC(=O)c1ncn(Cc2ccccc2)n1 [Compound I-23] | 5.91 | 17.8 | 26.4 | – | IC50 [2]: 2.68 nM
6 | CN1C(=O)[C@@H](NC(=O)c2ncn(Cc3ccccc3)n2)COc2ccc(C#CCN3CCN(CC#Cc4ccc5c(c4)N(C)C(=O)[C@@H](NC(=O)c4ncn(Cc6ccccc6)n4)CO5)CC3)cc21 [Compound I-30] | 4.89 | 16 | 16.6 | 2.62 | IC50 [2]: 4.07 nM
7 | [2H]C([2H])([2H])N1C(=O)[C@@H](NC(=O)c2ncn(Cc3ccccc3)n2)[C@@H](C)Oc2ccc(C#CCN3CCN(CC#C)CC3)cc21 [Compound I-35] | – | – | – | 5.89 | –
8 | C[C@H]1Oc2ccc(C#CCN3CCN(CC#Cc4ccc5c(c4)NC(=O)[C@@H](NC(=O)c4ncn(Cc6ccccc6)n4)[C@@H](C)O5)CC3)cc2NC(=O)[C@H]1NC(=O)c1ncn(Cc2ccccc2)n1 [Compound I-38] | – | – | – | 4.18 | –
9 | C#CCN1CCN(CC#Cc2ccc3c(c2)N(C)C(=O)[C@@H](NC(=O)c2ncn(Cc4ccccc4)n2)[C@H](C)O3)CC1 [Compound I-39] | – | – | – | 79 | –
10 | C[C@@H]1Oc2ccc(C#CCN3CCN(CC#Cc4ccc5c(c4)N(C)C(=O)[C@@H](NC(=O)c4ncn(Cc6ccccc6)n4)[C@@H](C)O5)CC3)cc2N(C)C(=O)[C@H]1NC(=O)c1ncn(Cc2ccccc2)n1 [Compound I-40] | – | – | – | 66.3 | –
11 | CN1C(=O)[C@@H](NC(=O)c2n[nH]c(Cc3ccccc3)n2)COc2ccc(C#CCCCCC#Cc3ccc4c(c3)N(C)C(=O)[C@@H](NC(=O)c3n[nH]c(Cc5ccccc5)n3)CO4)cc21 [Compound I-80] | – | – | – | 8.85 | –
12 | C[C@H]1Oc2ccc(C#CCOCCOCCOCCOCCOCC#CC#CCOCCOCCOCCOCCOCC#Cc3ccc4c(c3)N(C)C(=O)[C@H](NC(=O)c3ncn(Cc5ccccc5)n3)[C@@H](C)O4)cc2N(C)C(=O)[C@@H]1NC(=O)c1ncn(Cc2ccccc2)n1 [Compound I-89] | – | – | – | 7.44 | –
13 | CN1C(=O)[C@H](NC(=O)c2ncn(Cc3ccccc3)n2)COc2ccc(C#CCOCCOCCOCCOCCOCC#CC#CCOCCOCCOCCOCCOCC#Cc3ccc4c(c3)N(C)C(=O)[C@H](NC(=O)c3ncn(Cc5ccccc5)n3)CO4)cc21 [Compound I-90] | – | – | – | 6.29 | –
14 | COCCOCCOCCOCCOCC#Cc1ccc2c(c1)N(C)C(=O)[C@@H](NC(=O)c1n[nH]c(Cc3ccccc3)n1)CO2 [Compound I-100] | 3.14 | 12.5 | 8.65 | – | IC50 [2]: 2.39 nM
15 | COCCOCCOCCOCCOCC#Cc1ccc2c(c1)N(C)C(=O)[C@@H](NC(=O)c1ncn(Cc3ccccc3)n1)[C@@H](C)O2 [Compound I-101] | 5.62 | 13.7 | 10.1 | – | IC50 [2]: 2.95 nM
16 | COCCOCCOCCOCCOCC#Cc1ccc2c(c1)N(C)C(=O)[C@@H](NC(=O)c1ncn(Cc3ccccc3)n1)CO2 [Compound I-102] | 2.08 | 13.8 | 7.92 | – | IC50 [2]: 3.58 nM
17 | CC(O)C#Cc1ccc2c(c1)N(C)C(=O)[C@@H](NC(=O)c1ncn(Cc3ccccc3)n1)[C@@H](C)O2 (stereo partly drawn) [Compound I-104] | – | – | – | 10.2 | –
18 | C[C@H]1Oc2ccc(C#Cc3ccncc3)cc2N(C)C(=O)[C@H]1NC(=O)c1n[nH]c(Cc2ccccc2)n1 [Compound I-109] | – | 12.6 | 13.1 | – | –
19 | C[C@H]1Oc2ccc(C#Cc3ccncc3)cc2N(C)C(=O)[C@H]1NC(=O)c1ncn(Cc2ccccc2)n1 [Compound I-110] | – | 11.1 | 10.9 | – | –
20 | C[C@H]1Oc2ccc(C#Cc3cccnc3)cc2N(C)C(=O)[C@H]1NC(=O)c1n[nH]c(Cc2ccccc2)n1 [Compound I-111] | – | 12.4 | 13.7 | – | –
21 | C[C@H]1Oc2ccc(C#Cc3cccnc3)cc2N(C)C(=O)[C@H]1NC(=O)c1ncn(Cc2ccccc2)n1 [Compound I-112] | – | – | – | 7.21 | IC50 [3]: 11.3 nM; IC50 [4]: 10 nM
22 | C[C@H]1Oc2ccc(C#Cc3cccc(N)c3)cc2N(C)C(=O)[C@H]1NC(=O)c1n[nH]c(Cc2ccccc2)n1 [Compound I-117] | – | – | – | 12.7 | –
23 | C#Cc1ccc2c(c1)N(C)C(=O)[C@@H](NC(=O)c1nc(Cc3ccccc3)n[nH]1)[C@@H](C)O2 [Compound I-119] | 3.19 | 17.1 | 15.3 | – | –
24 | C#Cc1ccc2c(c1)N(C)C(=O)[C@@H](NC(=O)c1ncn(Cc3ccccc3)n1)[C@@H](C)O2 [Compound I-120] | 4.05 | 15.7 | 14.6 | – | –
25 | CN1C(=O)[C@@H](NC(=O)c2ncn(Cc3ccccc3)n2)COc2ccc(CCCN3CCN(CCCc4ccc5c(c4)N(C)C(=O)[C@@H](NC(=O)c4ncn(Cc6ccccc6)n4)CO5)CC3)cc21 [Compound I-121] | 6.12 | – | – | – | –
26 | C[C@H]1Oc2ccc(CCCN3CCN(CCCc4ccc5c(c4)N(C)C(=O)[C@@H](NC(=O)c4ncn(Cc6ccccc6)n4)[C@@H](C)O5)CC3)cc2N(C)C(=O)[C@H]1NC(=O)c1ncn(Cc2ccccc2)n1 [Compound I-122] | 7.14 | – | – | – | –
27 | CN1C(=O)[C@@H](NC(=O)c2n[nH]c(Cc3ccccc3)n2)COc2ccc(CCCN3CCN(CCCc4ccc5c(c4)N(C)C(=O)[C@@H](NC(=O)c4n[nH]c(Cc6ccccc6)n4)CO5)CC3)cc21 [Compound I-123] | 4.45 | – | – | – | –
28 | C[C@H]1Oc2ccc(CCCN3CCN(CCCc4ccc5c(c4)N(C)C(=O)[C@@H](NC(=O)c4n[nH]c(Cc6ccccc6)n4)[C@@H](C)O5)CC3)cc2N(C)C(=O)[C@H]1NC(=O)c1n[nH]c(Cc2ccccc2)n1 [Compound I-124] | 6.75 | – | – | – | –
29 | CN1C(=O)[C@@H](NC(=O)c2n[nH]c(Cc3ccccc3)n2)COc2ccccc21 [Control compound 3, reference compound] | 7.15 | 51.3 | > 100 | – | IC50 [2]: 9.92 nM
